What was measured:
clinical [1] = details: human, in vivo, AUC(0–24h)
[2] = human, in vivo
[3] = cited from earlier work
[4] = human, in vivo; remark: listed apart in the source
clinical [5] = details: human, in vivo, AUC(0–24h); remark: listed apart in the source
advanced breast cancer = details: heavily pretreated advanced breast cancer; cited from earlier work
glioblastoma multiforme = details: two trials in glioblastoma multiforme; cited from earlier work
mantle cell lymphoma = details: phase II, single agent; cited from earlier work

CCOc1cc2ncc(C#N)c(Nc3ccc(F)c(Cl)c3)c2cc1NC(=O)/C=C/CN(C)C [EKB-569]
AUC(0-t) (clinical [1]; Day 6): 378 ± 144 ng·h/mL
AUC(0-t) (clinical [1]; Day 7): 426 ± 127 ng·h/mL
AUC(0-t) (clinical [1]; Day 9): 493 ± 112 ng·h/mL
Accumulation: AUC(0–24h) Day 6/Day 1 [2]: 1.78±0.56
Accumulation: AUC(0–24h) Day 7/Day 6 [2]: 1.19±0.28
Accumulation: AUC(0–24h) Day 9/Day 6 [2]: 1.40±0.33
Increase of AUC(0-24h) on Day 7 [2]: about 19%
MTD, single agent ([3]; advanced solid tumors, DLT grade 3 diarrhea): 75 mg daily
Recommended dose in combination with FOLFIRI ([3]; in vivo): 25 mg daily

CCOc1cc2ncc(C#N)c(Nc3ccc(F)c(Cl)c3)c2cc1NC(=O)/C=C/CNC [N-desmethyl EKB-569]
AUC(0–24h), Day 6 [2]: 52.7 ± 61.2 ng·h/mL
AUC(0–24h), Day 7 [2]: 60.8 ± 52.8 ng·h/mL
AUC(0–24h), Day 9 [2]: 75.2 ± 51.0 ng·h/mL

CO[C@H]1C[C@@H]2CC[C@@H](C)[C@@](O)(O2)C(=O)C(=O)N2CCCC[C@H]2C(=O)O[C@H]([C@H](C)C[C@@H]2CC[C@@H](O)[C@H](OC)C2)CC(=O)[C@H](C)/C=C(\C)[C@@H](O)[C@@H](OC)C(=O)[C@H](C)C[C@H](C)/C=C/C=C/C=C/1C [sirolimus]
Accumulation: AUC(0–24h) Day 3/Day 1 [4]: 1.37±0.44
Accumulation: AUC(0–24h) Day 15/Day 1 [4]: 0.99±0.27
Accumulation: AUC(0–24h) Day 17/Day 3 [4]: 1.78±0.63
Change of AUC(0-24h) on Day 15 compared to day 1 [4]: similar
AUC(0-t) (clinical [5]; Day 3): 437 ± 116 ng·h/mL
AUC(0-t) (clinical [5]; po, 30 mg, Day 1): 348 ± 158 ng·h/mL

CO[C@H]1C[C@@H]2CC[C@@H](C)[C@@](O)(O2)C(=O)C(=O)N2CCCC[C@H]2C(=O)O[C@H]([C@H](C)C[C@@H]2CC[C@@H](OC(=O)C(C)(CO)CO)[C@H](OC)C2)CC(=O)[C@H](C)/C=C(\C)[C@@H](O)[C@@H](OC)C(=O)[C@H](C)C[C@H](C)/C=C/C=C/C=C/1C [temsirolimus]
Change of AUC(0-24h) on Day 15 compared to day 1 [4]: 66%
Partial response rate (advanced breast cancer): 9.2%
AUC(0-t) (clinical [5]; Day 3): 68.3 ± 20.4 ng·h/mL
AUC(0-t) (clinical [5]; po, 30 mg, Day 1): 83.9 ± 27.6 ng·h/mL
TTP (glioblastoma multiforme): 9–38 weeks
Median TTP (mantle cell lymphoma): 6 months
Overall response rate (mantle cell lymphoma): 38–41%
